Assay results reported in ChEMBL document CHEMBL4052770, “Synthesis and in vitro antiproliferative activities of (5-aryl-1,2,4-oxadiazole-3-yl) methyl d-ribofuranosides” (2017).

Columns and labels:
Type in all cases: functional
HeLa = experiment: Antiproliferative activity against human HeLa cells after 48 hrs by sulforhodamine B assay
HBL-100 = experiment: Antiproliferative activity against human HBL100 cells after 48 hrs by sulforhodamine B assay; details: HBL-100, 48 h
A549 = experiment: Antiproliferative activity against human A549 cells after 48 hrs by sulforhodamine B assay; details: A549, 48 h
T47D = experiment: Antiproliferative activity against human T47D cells after 48 hrs by sulforhodamine B assay
WiDr = experiment: Antiproliferative activity against human WiDr cells after 48 hrs by sulforhodamine B assay
SW1573 = experiment: Antiproliferative activity against human SW1573 cells after 48 hrs by sulforhodamine B assay; details: SW1573, 48 h

| SMILES | GI50 (HeLa) | GI50 (HBL-100) | GI50 (A549) | GI50 (T47D) | GI50 (WiDr) | GI50 (SW1573) |
| --- | --- | --- | --- | --- | --- | --- |
| COc1cc(C2=NOC(CO[C@@H]3O[C@H](CSc4ncn[nH]4)[C@H]4OC5(CCCC5)O[C@@H]34)C2)cc(OC)c1OC (stereo not given in full) | 38 µM | 43 µM | 37 µM | 55 µM | 53 µM | > 100 µM |
| CC1(C)O[C@H]2[C@H](OCc3noc(-c4ccc([N+](=O)[O-])cc4)n3)O[C@H](CSc3ncn[nH]3)[C@H]2O1 | 89 µM | > 100 µM | 90 µM | > 100 µM | > 100 µM | > 100 µM |
| Clc1ccc(-c2nc(CO[C@@H]3O[C@H](CSc4ncn[nH]4)[C@H]4OC5(CCCC5)O[C@@H]34)no2)cc1 | 14 µM | 24 µM | 13 µM | 10 µM | 4.5 µM | 10 µM |
| COc1cc(-c2cc(CO[C@@H]3O[C@H](CSc4ncn[nH]4)[C@H]4OC5(CCCC5)O[C@@H]34)on2)cc(OC)c1OC | 67 µM | 87 µM | 59 µM | 94 µM | 74 µM | 97 µM |
| CC1(C)O[C@H]2[C@H](OCc3noc(-c4ccc([N+](=O)[O-])cc4)n3)O[C@H](CSc3nnc(N)s3)[C@H]2O1 | > 100 µM | > 100 µM | > 100 µM | > 100 µM | > 100 µM | > 100 µM |
| O=[N+]([O-])c1ccc(-c2nc(CO[C@@H]3O[C@H](CO)[C@H]4OC5(CCCC5)O[C@@H]34)no2)cc1 | 15 µM | 17 µM | 32 µM | 50 µM | 41 µM | 27 µM |
| CC(=O)OC[C@H]1O[C@@H](OCc2noc(-c3ccc([N+](=O)[O-])cc3)n2)[C@@H]2OC3(CCCC3)O[C@@H]21 | 17 µM | 23 µM | 29 µM | 52 µM | 36 µM | 29 µM |
| Cc1ccc(S(=O)(=O)OC[C@H]2O[C@@H](OCc3noc(-c4ccc([N+](=O)[O-])cc4)n3)[C@@H]3OC4(CCCC4)O[C@@H]32)cc1 | > 100 µM | > 100 µM | > 100 µM | > 100 µM | > 100 µM | > 100 µM |
| Nc1nnc(SC[C@H]2O[C@@H](OCc3noc(-c4ccc([N+](=O)[O-])cc4)n3)[C@@H]3OC4(CCCC4)O[C@@H]32)s1 | 28 µM | 26 µM | 14 µM | 19 µM | 26 µM | 16 µM |
| COc1cc(-c2nc(CO[C@@H]3O[C@H](CSc4nnc(N)s4)[C@H]4OC5(CCCC5)O[C@@H]34)no2)cc(OC)c1OC | 31 µM | 33 µM | 36 µM | 42 µM | 41 µM | 38 µM |
| Nc1nnc(SC[C@H]2O[C@@H](OCc3noc(-c4ccc(Cl)cc4)n3)[C@@H]3OC4(CCCC4)O[C@@H]32)s1 | 16 µM | 30 µM | 15 µM | 18 µM | 15 µM | 17 µM |
| CC1(C)O[C@H]2[C@H](OCc3noc(-c4ccc([N+](=O)[O-])cc4)n3)O[C@H](CO)[C@H]2O1 | 99 µM | 99 µM | 99 µM | > 100 µM | > 100 µM | 60 µM |
| COc1cc(-n2cc(CO[C@@H]3O[C@H](CSc4ncn[nH]4)[C@H]4OC5(CCCC5)O[C@@H]34)nn2)cc(OC)c1OC | 30 µM | 84 µM | 33 µM | 41 µM | 26 µM | > 100 µM |
| O=[N+]([O-])c1ccc(-c2nc(CO[C@@H]3O[C@H](CSc4ncn[nH]4)[C@H]4OC5(CCCC5)O[C@@H]34)no2)cc1 | 20 µM | 24 µM | 10 µM | 20 µM | 20 µM | 15 µM |
| COc1cc(-c2nc(CO[C@@H]3O[C@H](CSc4ncn[nH]4)[C@H]4OC5(CCCC5)O[C@@H]34)no2)cc(OC)c1OC | 37 µM | 34 µM | 28 µM | 44 µM | 42 µM | 36 µM |
